The values that follow come from patent publication US20190083646A1, “MUTANT SMOOTHENED AND METHODS OF USING THE SAME” (CURIS, INC., priority 2016, published 2019).

The test system of test [1] is metastatic basal cell carcinoma (mBCC). The test can be described thus: Vismodegib treatment of metastatic basal cell carcinoma (mBCC) patients, overall response assessment. The class given is in vivo, human. An excerpt:
Clinical responses to targeted therapies (e.g., cancer therapies) can be short-lived due to the acquisition of genetic alterations that confer drug resistance. Identification of resistance mechanisms will guide novel therapeutic strategies. Inappropriate Hh signaling is linked to several cancers, including basal cell carcinoma (BCC). Loss-of-function mutations in PTCH (˜90%) and activating mutations in SMO (˜10%) are the primary drivers in BCC. Clinical mechanisms of resistance to vismodegib (GDC-0449) were identified by assessing vismodegibsensitivity and mutation status of BCCs from patients using the FoundationOne™ next-generation sequencing (NGS) platform. FIG. 1 lists characteristics of the mBCC (metastatic basal cell carcinoma) patients treated with vismodegib.
Patient Treatment Histories
008: patient with metastatic basal cell carcinoma (mBCC). No prior surgery for BCC was reported. Prior systemic therapy for metastatic BCC included the following agent: anthracycline chemotherapy. Sites of metastases at the time of screening included soft tissue in the right hemi pelvis. Measurable lesions were identified on the skin/soft tissue next to the right OS ilium, next to the right femur and ventral surface of the OS sacrum. Non-measurable lesions were identified on the bone destruction region in OS ilium and OS sacrum. The patient received their first dose of 150 mg vismodegib Study Day 1.
001: patient with metastatic basal cell carcinoma (mBCC). Prior surgery for BCC included 6 skin neoplasm excisions. No prior topical or systemic therapy for BCC was reported. Sites of metastases at the time of screening included skin of head. Measurable lesions were identified on skin of head (lymph nodes [besides trachea and infracarinal]). The patient received their first dose of 150 mg vismodegib on Study Day 1.
002: patient with metastatic basal cell carcinoma (mBCC). Prior surgery for BCC included skin neoplasm excision. No prior topical or systemic therapy for BCC was reported. Sites of metastases at the time of screening (24 Jan. 2012) included bone. Measurable lesions were identified on lung (S 5 right side and S 10 left side), os sacrum, vertebral 9 rib, right femur, occipital, and lymph nodes (mediastenum, retrocaval). The patient received their first dose of 150 mg vismodegib on Study Day 1.
011: patient with metastatic basal cell carcinoma (mBCC). No prior surgery for BCC was reported. No prior topical or systemic therapy for BCC was reported. Sites of metastases at the time of screening included bone and lung. Measurable lesion was identified on the skin of trunk. The patient received their first dose of 150 mg vismodegib on Study Day 1.
005: patient with metastatic basal cell carcinoma (mBCC). Prior surgery for BCC included skin neoplasm excision. Prior radiation directed to head and neck (total dose: 50 Gy). No prior topical or systemic therapy for BCC was reported. Sites of metastasis at the time of screening included neck, sternum and left clavicle. Measurable lesions were identified on neck (supraclavicular region), lung (segment 10 and 3). Non-measurable lesion was identified on sternocleidomastoid muscle and bone (left clavicle and sternum). The patient received their first dose of 150 mg vismodegib on Study Day 1.

Test [2] deals with medulloblastoma. To be noted: one patient; initial response, then no durable response and relapse of the tumor (Rudin et al., 2009); cited from earlier work.
Test [3] has as its system advanced BCC. To be noted: cited from earlier work.
Test [4] addresses SMO-D473H (Homo sapiens, UniProt Q99835, D473H). The note with it: SMO-D473H mutation from relapsed metastatic MB tumor; cited from earlier work.
For test [5], the target named is T1, SMO-G529S (Homo sapiens, UniProt Q99835, G529S).
T1 construct: expressed in transfected cells; host or cells: C3H10T1/2 cells (ATCC), transient transfection with GeneJuice
The test can be described thus: GLI-luciferase reporter assay, vismodegib dose response. The test is classed as cell-based. To be noted: C3H10T1/2 cells transfected with SMO-G529S compared with SMO-WT; FIG. 7. Here is the method:
Six hours later, cells from one well were trypsinized and redistributed over four wells of a 12-well plate. After 16 hours the FBS content of the culture medium was reduced to 0.5% to induce formation of primary cilia, and small molecule Hh inhibitors were added at indicated concentrations. Firefly luciferase activity was determined 24 hours later with the Dual-Glo Luciferase Assay System (Promega) and read using a Wallac EnVision plate reader (Perkin Elmer). Values were divided by renilla luciferase activities to normalize for transfection efficiency. Individual experiments were carried out in duplicate or triplicate and repeated at least once. Dose response data were fit to a 4-parameter equation in GraphPad Prism: […]

T1 sequence (Q99835 28-787 G529S): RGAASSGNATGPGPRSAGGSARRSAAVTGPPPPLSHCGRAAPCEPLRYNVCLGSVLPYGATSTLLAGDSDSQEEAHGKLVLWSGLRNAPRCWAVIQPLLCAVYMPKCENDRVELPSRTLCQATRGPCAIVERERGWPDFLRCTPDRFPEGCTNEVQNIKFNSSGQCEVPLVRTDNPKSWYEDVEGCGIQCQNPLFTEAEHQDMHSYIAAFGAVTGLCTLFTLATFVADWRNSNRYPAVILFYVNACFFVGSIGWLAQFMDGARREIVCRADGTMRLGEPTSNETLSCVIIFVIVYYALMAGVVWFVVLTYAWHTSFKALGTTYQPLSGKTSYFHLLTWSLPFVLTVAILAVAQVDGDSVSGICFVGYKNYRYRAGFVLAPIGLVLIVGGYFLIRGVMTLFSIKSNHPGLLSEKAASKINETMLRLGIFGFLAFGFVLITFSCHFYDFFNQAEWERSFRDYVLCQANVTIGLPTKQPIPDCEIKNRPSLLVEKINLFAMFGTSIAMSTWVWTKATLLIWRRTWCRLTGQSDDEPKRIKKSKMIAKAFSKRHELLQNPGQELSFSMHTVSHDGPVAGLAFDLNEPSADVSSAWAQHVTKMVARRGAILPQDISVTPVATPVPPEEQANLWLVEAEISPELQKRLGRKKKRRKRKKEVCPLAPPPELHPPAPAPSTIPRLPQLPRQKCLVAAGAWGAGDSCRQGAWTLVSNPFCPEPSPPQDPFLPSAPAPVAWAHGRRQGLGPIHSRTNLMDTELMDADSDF
Chain of SMO-D473H (Q99835 28-787 D473H): as the sequence (Q99835 28-787 G529S) above, with D446H, S502G counted along it

As for `CS(=O)(=O)c1ccc(C(=O)Nc2ccc(Cl)c(-c3ccccn3)c2)c(Cl)c1` [vismodegib], in test [1] (patient 001, 150 mg vismodegib), the “first PR on target lesions” value was 397 Study day and the “overall response assessment revealed disease progression” value was 516 Study Day. For the same compound, the “overall response assessment showed disease progression” value in test [1] (patient 002, 150 mg vismodegib) was 399 Study Day. For the same compound, in test [1] (patient 002, 150 mg vismodegib, cycle 7), the “first PR” value stood at 172 Study day. Also, the “overall response assessment showed progressive disease” value in test [1] (patient 005, 150 mg vismodegib) was found to be 336 Study Day. Moreover, the “overall response assessment showed disease progression” value in test [1] (patient 008, 150 mg vismodegib) is given as 673 Study Day. For the same compound, the “overall response assessment revealed progressive disease” value in test [1] (patient 011, 150 mg vismodegib) is 310 Study Day. Also, the response during treatment result in test [1] (patient 011, 150 mg vismodegib, cycle 11, Study day 282) is listed as “stable disease”. Moreover, the response to treatment result in test [2] is “dramatic response”. In test [3] (majority of BCC patients (Sekulic et al., 2012)), the “clinical outcome of treated BCC patients” value is “clinical benefit, including both complete and partial responses”. In addition, the “advanced BCC patients developing resistance to vismodegib” value in test [3] (within the first year of treatment, preliminary estimate (Chang and Oro, 2012)) was “up to 20%”. Also, in test [4], the “drug binding in vitro” value is given as “abrogate drug binding”. Besides, the “sensitivity to vismodegib (Gli-luciferase reporter activity)” value in test [5] is recorded as “reduced sensitivity”.
